Results published in PMC5710999, “Statistical investigation of the full concentration range of fasted and fed simulated intestinal fluid on the equilibrium solubility of oral drugs” (European Journal of Pharmaceutical Sciences, 2018).
Entries after “also recorded” stand apart in the source; their conditions may differ.

Tests used:
[1] = set-up: method as in Khadra et al., 2015; conditions: ref Khadra et al., 2015, cited from earlier work; for Statistical significance of DoE factor Bile Salt on equilibrium solubility, Fstd / Statistical significance of DoE factor Oleate on equilibrium solubility, Fstd / Statistical significance of DoE factor pH on equilibrium solubility, Fstd / Statistical significance of DoE factor Lecithin on equilibrium solubility, Fstd / Statistical significance of DoE factor Buffer on equilibrium solubility, Fstd / Statistical significance of DoE factor Salt on equilibrium solubility, Fstd: fasted media design of experiment; for Effect of buffer on equilibrium solubility in the fasted study: fasted DoE
[2] = quoted without reference; cited from earlier work
[3] = Equilibrium solubility in full range (fasted to fed) design of experiment simulated intestinal media; assay type: physicochemical; conditions: for Comparison of combined fasted and fed solubility data with the full range DoE: Mann-Whitney test on equilibrium solubility distributions; for Comparison between all solubility data sets (fasted, fed, combined, full range) / Comparison of published fasted DoE solubility distribution with full range DoE / Comparison of published fed DoE solubility distribution with full range DoE: Mann-Whitney test; for Comparison between all solubility data sets (fasted, fed, combined, full range): Fig. 2b; for Variability of equilibrium solubility values: Fig. 1 and 2; for Effect of pH on equilibrium solubility: pH 5 to 7; for Comparison of published fasted DoE solubility distribution with full range DoE: fasted state; for Comparison of published fed DoE solubility distribution with full range DoE: fed state
Text: A quarter of the full factorial design of experiment with 7 factors (either a component concentration or a system parameter such as pH) and 2 levels (upper and lower limits) was constructed and analysed using Minitab®17.2.1. Minitab generated 32 different experiments by various combinations of the upper and lower limits of the 7 factors based on Table 1 (no centre point and no replicate). When designing and analysing the DoE assumptions were made. […] Only main effects and 2-way interactions are considered in the analysis and 3-way interactions or more were not considered. […] The single factors and factor interactions are confounded with 3 to 6-way interactions which were not included. There are three confounded 2-way factor interactions, sodium oleate and salt with buffer and monoglyceride, sodium oleate and buffer with salt and monoglyceride, sodium oleate and monoglyceride with salt and buffer. For these interactions if the result is significant then any conclusions must be drawn with caution as it might be the result of the four factors together or only one of the 2 way interactions. […] The main effect can be positive (+) or negative (−), but when it is involved in an interaction, the conclusion will be considered with the interactions (±).
The Kolmogorov normality test was used in Minitab® to assess the distribution of each data set, based on the result that all data sets have a non-normal distribution the Mann-Whitney test was applied to evaluate differences between two data sets.
A stream of nitrogen gas was used to remove the chloroform ensuring a dry film was produced. Water was added to reform the dried film, stirred to obtain a homogenous mixture, transferred to a volumetric flask (5 ml) and made to volume with water.
Salt and buffer stock solution: Sodium chloride (4.448 g) and monosodium phosphate (NaH2PO4) (2.395 g) were weighed into a 25 ml volumetric flask, dissolved and made up to the volume with water.
Sodium oleate: Sodium oleate (1.978 g) was weighed into a 25 ml volumetric flask, dissolved in water under gentle heat and made to final volume. Solution was then kept at 50 °C to aid solubilisation.
The concentration of each stock mixture has been designed to be 15 times greater than the upper limit concentration value required for the DoE, with the exception of sodium oleate where only a 5 times concentration was possible. The stock mixtures were combined to provide the 32 measurement solutions according to the DoE model.
This protocol has been previously validated to ensure equilibrium solubility is achieved after 24 h with no methodological interference ([Khadra et al., 2015], [Zhou et al., 2017]). A weight of powdered drug (10 mg) was added to a centrifuge tube (15 ml Corning®). The required volume of each stock solution (section above) and water was added to provide a final volume of 4 ml in every tube. pH was then adjusted to 5 or 7 using 0.1 M HCL or 0.1 M KOH. Tubes were shaken for 1 h at room temperature and then pH adjusted again as before. Tubes are then placed in an orbital shaker and incubated for 24 h at 37 °C and 240 rpm. Following incubation the tubes were checked for the presence of solid drug, then centrifuged (13,000 rpm, 5 min) and the supernatant (500 μl) was sampled to determine the solubilised drug concentration by HPLC.

[4] = set-up: method as in Zhou et al., 2017; conditions: fed media design of experiment; ref Zhou et al., 2017; cited from earlier work
[5] = cited from earlier work; for pKa: quoted without reference
[6] = full range DoE, standardised effect
[7] = full range media design of experiment, p < 0.05

Compound | Statistical significance of DoE factor Bile Salt on equilibrium solubility, Fstd [1] | Statistical significance of DoE factor Oleate on equilibrium solubility, Fstd [1] | Statistical significance of DoE factor pH on equilibrium solubility, Fstd [1] | log P [2] | Comparison of combined fasted and fed solubility data with the full range DoE [3] | Variability of equilibrium solubility values ([3]; full range DoE) | Effect of sodium oleate on equilibrium solubility [3, 6] | Effect of pH on equilibrium solubility [3, 6] | Statistical significance of DoE factor Oleate on equilibrium solubility, Full [3, 7] | Statistical significance of DoE factor pH on equilibrium solubility, Full [3, 7] | Statistical significance of DoE factor Bile Salt on equilibrium solubility, Fed [4] | Statistical significance of DoE factor Oleate on equilibrium solubility, Fed [4] | Statistical significance of DoE factor pH on equilibrium solubility, Fed [4] | Statistical significance of DoE factor Lecithin on equilibrium solubility, Fstd [1] | Effect of bile salt on equilibrium solubility [3, 6] | Statistical significance of DoE factor Bile Salt on equilibrium solubility, Full [3, 7] | Statistical significance of DoE factor Buffer on equilibrium solubility, Fstd [1] | further results
C[C@@H](O[C@H]1OCCN(Cc2n[nH]c(=O)[nH]2)[C@H]1c1ccc(F)cc1)c1cc(C(F)(F)F)cc(C(F)(F)F)c1 [Aprepitant, aprepitant] | S | S | S | 4.5 | significantly different | more consistency | positively affected | significant effect | S | S | S | S | S |  |  |  |  | Comparison between all solubility data sets (fasted, fed, combined, full range) [3]: statistically significant difference between all data sets; Statistical significance of DoE factor Buffer on equilibrium solubility, Fed [4]: S; Statistical significance of DoE factor Lecithin on equilibrium solubility, Fed [4]: S; Statistical significance of DoE factor Salt on equilibrium solubility, Fed [4]: S
COc1ccccc1OCCNCC(O)COc1cccc2[nH]c3ccccc3c12 (stereo not shown) [Carvedilol, carvedilol] | S | S | S |  | no significant difference |  | positively affected | significant effect | S | S | S | S | S | S |  |  |  | Comparison of published fasted DoE solubility distribution with full range DoE [3]: statistically equivalent; Statistical significance of DoE factor Buffer on equilibrium solubility, Fed [4]: S; Statistical significance of DoE factor Monoglyceride on equilibrium solubility, Fed [4]: S
CCOC(=O)C1=C(C)NC(C)=C(C(=O)OC)C1c1cccc(Cl)c1Cl (stereo not shown) [Felodipine, felodipine] | S | S | S | 3.8 | significantly different | large variability | positive effect | affected | S | S | S | S | S | S | positive effect | S |  | Comparison of published fed DoE solubility distribution with full range DoE [3]: statistically equivalent; Effect of lecithin on equilibrium solubility [3, 6]: affected; Statistical significance of DoE factor Lecithin on equilibrium solubility, Full [3, 7]: S; Statistical significance of DoE factor Lecithin on equilibrium solubility, Fed [4]: S
COc1ccc2c(c1)c(CC(=O)O)c(C)n2C(=O)c1ccc(Cl)cc1 [Indomethacin, indomethacin] | S | S | S |  | no significant difference | larger variability |  |  | S | S | S | S | S |  |  | S | S | Effect of buffer on equilibrium solubility in the fasted study [1]: negative effect
O=C1NC(=O)C(c2ccccc2)(c2ccccc2)N1 [Phenytoin, phenytoin] | S | S | S |  | no significant difference | more consistency; also recorded: very consistent |  |  | S | S | S | S | S | S |  |  | S | Effect of buffer on equilibrium solubility in the fasted study [1]: positive effect; Statistical significance of DoE factor Salt on equilibrium solubility, Fstd [1]: S; Comparison of published fasted DoE solubility distribution with full range DoE [3]: statistically equivalent; Statistical significance of DoE factor Monoglyceride on equilibrium solubility, Fed [4]: S
CC(C)(Sc1cc(C(C)(C)C)c(O)c(C(C)(C)C)c1)Sc1cc(C(C)(C)C)c(O)c(C(C)(C)C)c1 [Probucol, probucol] |  |  |  | 10.9 | no significant difference |  |  |  |  |  |  |  |  |  |  |  |  | Influence of any DoE factor on equilibrium solubility ([3]; full range DoE): not significantly influenced by any of the factors
CN1CC(=O)N2[C@H](c3ccc4c(c3)OCO4)c3[nH]c4ccccc4c3C[C@@H]2C1=O [Tadalafil, tadalafil] | S | S | S |  | significantly different | large variability | positively affected | not | S |  | S | S |  | S | positively affects | S | S | Statistical significance of DoE factor Salt on equilibrium solubility, Fstd [1]: S; Comparison between all solubility data sets (fasted, fed, combined, full range) [3]: statistically significant difference between all data sets; pKa [5]: 10
COc1cc(C(=O)NS(=O)(=O)c2ccccc2C)ccc1Cc1cn(C)c2ccc(NC(=O)OC3CCCC3)cc12 [Zafirlukast, zafirlukast] | S | S | S |  | no significant difference |  |  | significant effect |  | S | S |  | S | S | positively affects | S |  | Comparison of published fed DoE solubility distribution with full range DoE [3]: statistically equivalent; pKa [5]: 4.3
CCCCCCCC/C=C\CCCCCCCC(=O)O [oleate, Sodium oleate] |  |  |  |  |  |  |  |  |  |  |  |  |  |  |  |  |  | pKa of acidic media factors ([5]; ref Holm et al., 2013): approximately 5
